The values below are quoted from earlier work in patent publication US6232438A, “Angiotensin converting enzyme inhibitors” (Nong Shim Co., Ltd., priority 1996, dated 2001).

The data set deals with ACE (Homo sapiens, UniProt P12821). Conditions: peptide from enzymatic hydrolysate of milk casein.
Sequence of ACE (P12821 30-1306, species assumed): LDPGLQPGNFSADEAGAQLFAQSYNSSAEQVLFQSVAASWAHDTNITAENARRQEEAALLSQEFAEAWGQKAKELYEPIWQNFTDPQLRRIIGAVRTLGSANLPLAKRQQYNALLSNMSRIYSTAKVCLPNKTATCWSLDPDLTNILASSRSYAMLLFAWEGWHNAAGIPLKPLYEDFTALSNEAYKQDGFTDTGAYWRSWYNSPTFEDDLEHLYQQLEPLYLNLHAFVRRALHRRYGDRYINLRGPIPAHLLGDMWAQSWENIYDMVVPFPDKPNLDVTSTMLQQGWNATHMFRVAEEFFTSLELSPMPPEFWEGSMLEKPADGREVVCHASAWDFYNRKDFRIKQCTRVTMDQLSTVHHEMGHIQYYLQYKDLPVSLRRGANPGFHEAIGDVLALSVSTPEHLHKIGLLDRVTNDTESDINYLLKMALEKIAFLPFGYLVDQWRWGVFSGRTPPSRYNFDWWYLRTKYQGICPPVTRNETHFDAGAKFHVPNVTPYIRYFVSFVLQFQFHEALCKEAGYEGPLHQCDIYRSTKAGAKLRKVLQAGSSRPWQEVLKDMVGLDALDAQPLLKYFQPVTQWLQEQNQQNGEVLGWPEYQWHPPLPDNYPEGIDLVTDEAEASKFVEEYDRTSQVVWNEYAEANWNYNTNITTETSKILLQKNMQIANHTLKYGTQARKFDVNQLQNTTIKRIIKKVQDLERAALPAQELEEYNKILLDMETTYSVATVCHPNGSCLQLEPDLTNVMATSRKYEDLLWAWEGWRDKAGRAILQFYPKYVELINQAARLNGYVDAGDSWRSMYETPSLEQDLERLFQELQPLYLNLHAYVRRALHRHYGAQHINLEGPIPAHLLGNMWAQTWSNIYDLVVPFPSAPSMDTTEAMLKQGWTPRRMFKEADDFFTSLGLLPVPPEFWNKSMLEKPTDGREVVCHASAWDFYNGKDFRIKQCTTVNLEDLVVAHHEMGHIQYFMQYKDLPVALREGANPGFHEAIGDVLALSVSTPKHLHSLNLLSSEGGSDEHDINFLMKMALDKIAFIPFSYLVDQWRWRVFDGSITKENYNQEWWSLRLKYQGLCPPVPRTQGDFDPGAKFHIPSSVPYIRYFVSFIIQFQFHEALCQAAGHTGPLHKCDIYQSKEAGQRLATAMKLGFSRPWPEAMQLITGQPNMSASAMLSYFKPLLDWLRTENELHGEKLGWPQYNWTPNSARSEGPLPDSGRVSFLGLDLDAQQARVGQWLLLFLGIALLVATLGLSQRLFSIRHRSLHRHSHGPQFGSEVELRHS

By IC50 is commonly meant the point on the concentration scale where inhibition reaches its midpoint. Regarding “phenylalanine-phenylalanine-valine-alanine-proline”, the IC50 was 6 µM.
